Data published in article PMC9667936, “Functional mapping of the 14-3-3 hub protein as a guide to design 14-3-3 molecular glues” (Chemical Science, 2022).
Read-outs that look alike come from different tables or passages of the source. Where a SMILES comes first, the peptide text is derived from it. [ ]: non-standard residue; d: D form. ξ: configuration not given here. Phe(4-NO2) = N[C@@H](Cc1ccc([N+](=O)[O-])cc1)C(=O)O; ξAla(4-thiazolyl) = NC(Cc1cscn1)C(=O)O; pS = N[C@@H](COP(=O)(O)O)C(=O)O; β3hS = N[C@@H](CO)CC(=O)O; Nva = CCC[C@H](N)C(=O)O; βAla = NCCC(=O)O

Target: T1, 14-3-3γ (Homo sapiens, UniProt P61981)
T1 construct: made in house; host or cells: E. coli NiCo21 (DE3)
T1 sequence (P61981 1-247): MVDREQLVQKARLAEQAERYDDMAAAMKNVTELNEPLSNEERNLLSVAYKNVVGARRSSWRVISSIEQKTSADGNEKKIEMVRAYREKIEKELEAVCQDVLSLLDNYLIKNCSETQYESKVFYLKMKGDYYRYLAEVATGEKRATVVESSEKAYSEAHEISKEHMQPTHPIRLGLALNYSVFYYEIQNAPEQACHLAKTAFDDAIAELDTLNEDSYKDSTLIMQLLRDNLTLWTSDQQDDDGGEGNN
Assay: Isothermal titration calorimetry (ITC) of 14-3-3 binding to peptide
Details: for ΔG / Kd / ΔH / -TΔS: 25 °C; for Kd: Table S6 (unit as in Table S5)
Experimental: 14-3-3γ protein expression (FP/ITC experiments)
A pPROEX HTb expression vector encoding the human 14-3-3 protein gamma (14-3-3γ) with an N-terminal his6-tag was transformed by heat shock into NiCo21 (DE3) competent cells. Single colonies were cultured in 50 mL LB medium (100 µg/mL ampicillin). After overnight incubation at 37 °C, cultures were transferred to 2 L TB media (100 µg/mL ampicillin, 1 mM MgCl2) and incubated at 37 °C until an OD600 nm of 0.8-1.2 was reached. Protein expression was then induced with 0.4 mM isopropyl-β-d-thiogalactoside (IPTG), and cultures were incubated overnight at 18 °C. Cells were harvested by centrifugation (8600 rpm, 20 minutes, 4 °C) and resuspended in lysis buffer (50 mM Hepes, pH 8.0, 300 mM NaCl, 12.5 mM imidazole, 5 mM MgCl2, 2 mM βME) containing cOmplete™ EDTA-free Protease Inhibitor Cocktail tablets (1 tablet/100 ml lysate) and benzonase (1 µl/100 ml). After lysis using a C3 Emulsiflex-C3 homogenizer (Avestin), the cell lysate was cleared by centrifugation (20000 rpm, 30 minutes, 4 °C) and purified using Ni2+-affinity chromatography (Ni-NTA superflow cartridges, Qiagen).
Typically two 5 mL columns (flow 5 mL/min) were used for a 2 L culture in which the lysate was loaded on the column washed with 10 CV wash buffer (50 mM Hepes, pH 8.0, 300 mM NaCl, 25 mM imidazole, 2 mM βME) and eluted in several fractions (2-4 CV) of elution buffer (50 mM Hepes, pH 8.0, 300 mM NaCl, 250 mM imidazole, 2 mM βME). Fractions containing the 14-3-3 protein were combined and dialyzed into 25 mM HEPES pH 8.0, 100 mM NaCl, 10 mM MgCl2, 500 µM TCEP. […]
The peptides 1 and 2a-d were synthesized on 50 µmol scale on a Rink amide MBHA resin (Novabiochem, 0.52 mmol/g loading) using an automated Intavis MultiPep RSi peptide synthesizer.
Deprotection was performed twice per cycle with 20% v/v piperidine in DMF for 8 minutes. Fmoc-protected amino acids were mixed in 5 equivalents of HBTU and 9 equivalents of DIPEA in DMF, and coupled to the resin. With the exception of phosphoserine, which was coupled once for 60 minutes, all amino acids were coupled to the resin twice for 30 minutes. Capping of unreacted amino acids was performed with a mixture of acetic anhydride/pyridine/DMF (1:1:3) for 5 minutes. βAla was incorporated as a spacer between the sequence and Lys(Alloc), to which a FITC fluorophore will be coupled for fluorescence anisotropy studies.
The peptides 1 and 2e-i were synthesized manually on a 50 µmol scale using Rink amide MBHA resin (Novabiochem, 0.52 mmol/g loading) via Fmoc based solid phase peptide synthesis. […]
(lex: 485 ± 20 nm; lem: 535 ± 25 nm; mirror: Dichroic 510; flashes: 20; integration time: 50 ms; settle time:
0 ms; gain: optimal; and Z-position: calculated from well). […]
Data was obtained and averaged based on two
To determine the cooperativity parameters from the 2D-titration of 14-3-3/ChREBP/2d (as described above) we have used the general framework for straightforward model construction of multi-component thermodynamic equilibrium systems as described by Geertjens et al. (2021).10 This general platform generates a model to describe multi-component equilibrium systems when given a system description.
In our case we gave the following system description: […]
α (with 95% confidence interval) and the error-landscape of the determine parameters.
Fluorescence anisotropy (FA) – Selectivity study: Peptides representing 14-3-3 binding partners (including ChREBP) were titrated in a 2-fold dilution series (starting at 100 µM) to 20 nM of fluorescein-labeled peptide 2d in presence and absence of, respectively, 2 µM 14-3-3γ in FA buffer (10 mM HEPES pH 7.4, 150 mM NaCl, 0.1% (v/v) Tween20, 0.1% (w/v) BSA). Dilution series were made in a polystyrene (non-binding) low-volume Corning Black Round Bottom 384-well plates (Corning 4514 or 4511).
Measurements were performed directly after plate preparation, using a Tecan Infinite F500 plate reader at room temperature (lex: 485 ± 20 nm; lem: 535 ± 25 nm; mirror: Dichroic 510; flashes: 20; integration […]

[1] = Table S5, ITC Kd / Kd of peptide 1, first unlabelled line (replicate 1)
[2] = Table S5, ITC Kd / Kd of peptide 1, second unlabelled line (replicate 2)
[3] = Table S5, ITC Kd of peptide divided by Kd of peptide 1, mean of n = 2
[4] = Table S5, ΔG minus ΔG of peptide 1, ITC, first unlabelled line (replicate 1)
[5] = Table S5, ΔG minus ΔG of peptide 1, ITC, second unlabelled line (replicate 2)
[6] = Table S5, ΔG of peptide minus ΔG of peptide 1, ITC, mean of n = 2
[7] = ITC, average of two runs, read-out: Kd
[8] = Table S6 (unit given in Fig. 4 legend), ITC, average of two runs
[9] = Table S6, ITC, average of two runs

| SMILES | Fold change to 1 [1] | Fold change to 1 [2] | ΔG (Table S5, ITC, mean of n = 2) [kcal/mol] | ΔG (Table S5, ITC, replicate 1) [kcal/mol] | ΔG (Table S5, ITC, replicate 2) [kcal/mol] | ΔΔG to 1 [4] [kcal/mol] | ΔΔG to 1 [5] [kcal/mol] | ΔΔG to 1 [6] [kcal/mol] | Kd [7] [nM] | Kd (ITC, run 1) | Kd (ITC, run 2) | ΔH [8] | -TΔS [9] | ΔG [9] | -TΔS (Table S6, ITC, run 1) | ΔG (Table S6, ITC, run 1) | ΔH (Table S6, ITC, run 1) | -TΔS (Table S6, ITC, run 2) | ΔG (Table S6, ITC, run 2) | ΔH (Table S6, ITC, run 2) | also measured |
| --- | --- | --- | --- | --- | --- | --- | --- | --- | --- | --- | --- | --- | --- | --- | --- | --- | --- | --- | --- | --- | --- |
| CCC[C@H](NC(=O)[C@H](N)CCCCN)C(=O)N[C@@H](Cc1ccc([N+](=O)[O-])cc1)C(=O)N[C@@H](C)C(=O)N[C@@H](COP(=O)(O)O)C(=O)N[C@@H](Cc1ccc([N+](=O)[O-])cc1)C(=O)N[C@@H](CO)CC(=O)NCCC(=O)N[C@@H](Cc1ccc([N+](=O)[O-])cc1)C(=O)N[C@@H](CCCCN)C(N)=O [3a] (H-[dK][Nva][Phe(4-NO2)]A[pS][Phe(4-NO2)][β3hS][βAla][Phe(4-NO2)]K-NH2; N-terminus and C-terminus assumed) | 2.0 | 1.5 | -9.7 | -9.6 | -9.8 | 0.4 | 0.3 | 0.3 | 79.1 | 8,86E-08 M | 6,97E-08 M | -7,40 kcal mol^-1 | -2,29 kcal mol^-1 | -9,69 kcal mol^-1 | -1,624 kcal mol^-1 | -9,622 kcal mol^-1 | -7,998 kcal mol^-1 | -2,955 kcal mol^-1 | -9,764 kcal mol^-1 | -6,809 kcal mol^-1 | Fold change to 1 [3]: 1.8 |
| CCC[C@H](NC(=O)[C@H](N)CCCCN)C(=O)N[C@@H](Cc1ccc([N+](=O)[O-])cc1)C(=O)NC(Cc1cscn1)C(=O)N[C@@H](COP(=O)(O)O)C(=O)N[C@@H](Cc1ccc(O)cc1)C(=O)N[C@@H](CO)CC(=O)NCCC(=O)N[C@@H](Cc1ccc([N+](=O)[O-])cc1)C(=O)N[C@@H](CCCCN)C(N)=O (stereo partly drawn) [4a] (H-[dK][Nva][Phe(4-NO2)][ξAla(4-thiazolyl)][pS]Y[β3hS][βAla][Phe(4-NO2)]K-NH2; N-terminus and C-terminus assumed) | 2.8 | 1.3 | -9.6 | -9.4 | -9.8 | 0.6 | 0.2 | 0.4 | 93.6 | 1,26E-07 M | 6,09E-08 M | -6,64 kcal mol^-1 | -2,99 kcal mol^-1 | -9,63 kcal mol^-1 | -3,582 kcal mol^-1 | -9,411 kcal mol^-1 | -5,83 kcal mol^-1 | -2,393 kcal mol^-1 | -9,844 kcal mol^-1 | -7,45 kcal mol^-1 | Fold change to 1 [3]: 2.1 |
| CCC[C@H](NC(=O)[C@H](N)CCCCN)C(=O)N[C@@H](Cc1ccc([N+](=O)[O-])cc1)C(=O)NC(Cc1cscn1)C(=O)N[C@@H](COP(=O)(O)O)C(=O)N[C@@H](Cc1ccccc1)C(=O)N[C@@H](CO)CC(=O)NCCC(=O)N[C@@H](Cc1ccc([N+](=O)[O-])cc1)C(=O)N[C@@H](CCCCN)C(N)=O (stereo partly drawn) [4b] (H-[dK][Nva][Phe(4-NO2)][ξAla(4-thiazolyl)][pS]F[β3hS][βAla][Phe(4-NO2)]K-NH2; N-terminus and C-terminus assumed) | 0.6 | 0.8 | -10.2 | -10.3 | -10.1 | -0.3 | -0.1 | -0.2 | 31.9 | 2,62E-08 M | 3,76E-08 M | -7,40 kcal mol^-1 | -2,87 kcal mol^-1 | -10,24 kcal mol^-1 | -2,391 kcal mol^-1 | -10,34 kcal mol^-1 | -8,024 kcal mol^-1 | -3,345 kcal mol^-1 | -10,13 kcal mol^-1 | -6,783 kcal mol^-1 | Fold change to 1 [3]: 0.7 |
| CCC[C@H](NC(=O)[C@H](N)CCCCN)C(=O)N[C@@H](Cc1ccc([N+](=O)[O-])cc1)C(=O)NC(Cc1cscn1)C(=O)N[C@@H](COP(=O)(O)O)C(=O)N[C@@H](C)C(=O)N[C@@H](CO)CC(=O)NCCC(=O)N[C@@H](Cc1ccc([N+](=O)[O-])cc1)C(=O)N[C@@H](CCCCN)C(N)=O (stereo partly drawn) [4c] (H-[dK][Nva][Phe(4-NO2)][ξAla(4-thiazolyl)][pS]A[β3hS][βAla][Phe(4-NO2)]K-NH2; N-terminus and C-terminus assumed) | 15.0 | 18.9 | -8.3 | -8.4 | -8.3 | 1.6 | 1.7 | 1.7 | 764 | 6,72E-07 M | 8,56E-07 M | -4,81 kcal mol^-1 | -3,54 kcal mol^-1 | -8,35 kcal mol^-1 | -3,445 kcal mol^-1 | -8,421 kcal mol^-1 | -4,976 kcal mol^-1 | -3,629 kcal mol^-1 | -8,278 kcal mol^-1 | -4,649 kcal mol^-1 | ΔΔG of point mutation (ITC) (ITC, relative to 1, mean ± SD, SD): 1.7 ± 0.1 kcal/mol |
